These results are taken from US7989587B2, “SSX-2 peptides presented by HLA class II molecules” (Ludwig Institute for Cancer Research Ltd., priority 1999, dated 2011).

The assay deals with SSX-2 specific CD4^+ T cells. In words: Intracellular IFN-γ staining of CD4+ T cells from patient LAU672 after stimulation with SSX-2 peptide submixtures or single peptides. In kind it is cell-based, human. To be noted: representative CD4+ T cell clone, FIG. 2A. As for the experimental part:
Generation of SSX-2 specific CD4^+ T cells. In vitro sensitization of CD4^+ T cells was carried out as described previously for CD8^+ T cells. Briefly, 1 to 2×10^6 CD4^+ T cells highly enriched from peripheral blood mononuclear cells (PBMC) by magnetic cell sorting using a miniMACS device (Miltenyi Biotec, Sunnyvale, Calif., USA) were stimulated with a mixture containing peptides spanning the entire SSX-2 protein sequence (Ayyoub et al, J Immunol 2002. 32:2292-2299) (2 μM each) in the presence of irradiated autologous cells from the CD4^− fraction in CTL medium containing rhIL-2 (10 U/ml) and IL-7 ([…]). The enriched CD4^+ T cells were cultured 2-3 weeks prior to being tested. CD4^+ T cells secreting cytokines in response to peptide stimulation were isolated by cytokine guided flow cytometry cell sorting using the cytokine secretion detection kit (Miltenyi Biotec) and cloned by limiting dilution culture in the presence of PHA (Sigma), allogenic irradiated PBMC and rhIL-2 as described (Valmori et al., 2001, Cancer Res. 61:501-512). Clones were subsequently expanded by periodic (3-4 weeks) stimulation under the same conditions.
As recombinant SSX-2 protein became available, we initiated a study to identify CD4^+ T cell epitopes. To that purpose, we prepared monocyte-derived dendritic cells (DC) from patient LAU672 by isolating CD 14+ monocytes from PBMC by magnetic cell sorting. The obtained population (containing >95% CD14^+ cells) was cultured in CTL medium containing 1,000 U/ml of rhGM-CSF and 1,000 U/ml of rhIL-4 during 6 days. At the end of the culture period, DC were incubated with recombinant SSX-2 protein for 12 hours and used to stimulate autologous CD4^+ T cells isolated from PBMC by magnetic cell sorting.
Two weeks after stimulation, culture aliquots were tested using either a pool containing all SSX-2 overlapping peptides or submixtures, each composed of 3 peptides (P1-3, P4-6 etc., FIG. 1). […]
The presence of specific CD4^+ T cells was monitored by intracellular staining with INF-γ specific antibodies (FIG. 1A). […]

With “WEKMKASEKIFYVYMKRKYEAM (SSX-2 peptide) [SSX-2 37-58]”, the “reactivity to single peptides in the submixture P4-6” value was “active peptide”.
